This is an account of results in article PMC7828231, “Delphinidin Increases the Sensitivity of Ovarian Cancer Cell Lines to 3-bromopyruvate” (International Journal of Molecular Sciences, 2021).

Like-named read-outs stand apart in the source and are kept apart here.

What all share (assay): Cytotoxicity, Neutral Red survival assay
Common to all, as to format: cell-based, human

One experiment has as its system SKOV3 cells. The settings on record: Homo sapiens. On the procedure: (§1) SKOV3 and PEO1 cells were seeded in a clear 96-well plate at a density of 1 × 10^4 cells/well in 100-µL culture medium. MRC-5 cells were seeded at a density of 7.5 × 10^3/well and allowed to attach for 24 h at 37 °C. After incubation, the cells were treated with delphinidin chloride in a concentration range of 10–100 µM and 3-BP at concentrations between 5–25 µM for PEO1 and 10–50 µM for MRC-5 and SKOV3. Nontreated cells were used as a control. Stock solutions of tested substances were prepared in DMSO and their working solutions in culture media. The DMSO concentration was adjusted to 0.2% in all samples, which had no significant effect on the treated cells. After 24-h exposure time, the medium was removed and replaced with 100 µL of […] neutral red solution, and the cells were incubated at 37 °C for 1 h. Then, the cells were washed with PBS; fixed with 100 µL/well of 50% ethanol, 49% H2O and 1% glacial acetic acid and shaken (700 rpm) at room temperature for 20 min. Absorbance was measured at 540 nm against 620 nm.

In another experiment the test system is PEO1 cells. Particulars: Homo sapiens. The procedure: as §1
In the next experiment the test system is MRC-5 fibroblasts. Particulars: Homo sapiens, MRC5, read-out: IC50 of cell survival (extrapolated). The procedure: as §1
Where [1] appears, read: PEO1, 24 h, PEO1, 24-h exposure, Neutral Red, ND = no reduction of survival in the concentration range studied, read-out: IC50 of cell survival.
[2] abbreviates: SK-OV-3, SKOV3, extrapolated from data obtained in the concentration range of 1–100 µM, read-out: IC50 of cell survival (extrapolated).
Where [3] appears, read: PEO1, PEO1, extrapolated from data obtained in the concentration range of 1–100 µM, read-out: IC50 of cell survival (extrapolated).

Consider `COc1c(O)cc2oc(-c3ccc(O)cc3)cc(=O)c2c1O` [Hispidulin], for which the IC50 – broadly, the concentration needed to halve the response being measured – with SKOV3 cells (SK-OV-3, read-out: IC50 of cell survival (extrapolated)) is more than 100 µM; with PEO1 cells (PEO1, 24 h, read-out: IC50 of cell survival), 181 µM.

With `O=c1c(O)c(-c2cc(O)c(O)c(O)c2)oc2cc(O)cc(O)c12` [Myricetin], in the experiment with PEO1 cells (setting [1]), the IC50 came to 196 µM.

Turning to `Oc1cc(O)c2cc(O)c(-c3ccc(O)c(O)c3)[o+]c2c1` [Cyanidin chloride], the IC50 in the experiment with PEO1 cells (setting [1]) amounted to 107 µM.

With `O=c1c(-c2ccc(O)cc2)coc2cc(O)cc(O)c12` [Genistein], the IC50 with SKOV3 cells (setting [2]) and with PEO1 cells (setting [3]) was more than 100 µM each time.

`O=c1c(-c2ccc(O)cc2)coc2cc(O)ccc12` [Daidzein]: the IC50 in the experiment on SKOV3 cells (setting [2]) and in the experiment on PEO1 cells (setting [3]) was more than 100 µM throughout.

As to `COc1cc(-c2[o+]c3cc(O)cc(O)c3cc2O)cc(OC)c1O` [Malvidin chloride], the IC50 was more than 100 µM with MRC-5 fibroblasts; 90 µM in the experiment with SKOV3 cells (SK-OV-3, 24 h, read-out: IC50 of cell survival); more than 100 µM with PEO1 cells (PEO1, read-out: IC50 of cell survival (extrapolated)).
